The IC50 is the concentration at which inhibition is half-maximal. For orientation: EC50 means the midpoint of the concentration-response curve. As usually defined, the AC50 is the concentration at which the activity in the assay is half-maximal. The CC50 is the concentration giving 50% cytotoxicity.

27 compounds from ChEMBL document CHEMBL1201862, “PubChem BioAssay data set” (2004) can be followed below.

Activity calls are given as the source filed them.

Assay [1] addresses T1, Rac GTPase-activating protein 1 (Homo sapiens, UniProt Q9H0H5).
T1 sequence (Q9H0H5 whole entry): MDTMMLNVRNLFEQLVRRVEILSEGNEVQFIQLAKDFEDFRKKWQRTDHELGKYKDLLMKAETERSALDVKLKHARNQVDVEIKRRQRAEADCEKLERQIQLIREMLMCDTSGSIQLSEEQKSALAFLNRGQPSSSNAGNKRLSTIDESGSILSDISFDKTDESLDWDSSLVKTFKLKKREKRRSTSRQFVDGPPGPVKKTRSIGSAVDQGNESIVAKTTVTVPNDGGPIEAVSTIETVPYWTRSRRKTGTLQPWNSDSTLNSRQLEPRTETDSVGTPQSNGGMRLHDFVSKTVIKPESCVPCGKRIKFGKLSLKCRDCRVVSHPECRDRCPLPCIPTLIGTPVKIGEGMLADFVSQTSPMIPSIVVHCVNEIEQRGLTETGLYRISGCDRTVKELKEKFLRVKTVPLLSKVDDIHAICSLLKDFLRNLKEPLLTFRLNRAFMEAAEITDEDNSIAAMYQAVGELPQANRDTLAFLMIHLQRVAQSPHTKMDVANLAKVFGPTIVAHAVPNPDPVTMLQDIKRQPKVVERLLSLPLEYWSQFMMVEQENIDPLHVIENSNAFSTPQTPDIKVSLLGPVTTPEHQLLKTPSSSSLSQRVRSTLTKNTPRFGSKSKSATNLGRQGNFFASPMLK
Kind of assay: MgcRacGAP GTPase-activating activity inhibitors, confirmation, biochemical, ADP Hunter fluorescence, primary and confirmatory (AID 624330). Type of assay: functional.

The target of assay [2] is T2, High affinity choline transporter 1 (Homo sapiens, UniProt Q9GZV3).
T2 sequence (Q9GZV3 whole entry): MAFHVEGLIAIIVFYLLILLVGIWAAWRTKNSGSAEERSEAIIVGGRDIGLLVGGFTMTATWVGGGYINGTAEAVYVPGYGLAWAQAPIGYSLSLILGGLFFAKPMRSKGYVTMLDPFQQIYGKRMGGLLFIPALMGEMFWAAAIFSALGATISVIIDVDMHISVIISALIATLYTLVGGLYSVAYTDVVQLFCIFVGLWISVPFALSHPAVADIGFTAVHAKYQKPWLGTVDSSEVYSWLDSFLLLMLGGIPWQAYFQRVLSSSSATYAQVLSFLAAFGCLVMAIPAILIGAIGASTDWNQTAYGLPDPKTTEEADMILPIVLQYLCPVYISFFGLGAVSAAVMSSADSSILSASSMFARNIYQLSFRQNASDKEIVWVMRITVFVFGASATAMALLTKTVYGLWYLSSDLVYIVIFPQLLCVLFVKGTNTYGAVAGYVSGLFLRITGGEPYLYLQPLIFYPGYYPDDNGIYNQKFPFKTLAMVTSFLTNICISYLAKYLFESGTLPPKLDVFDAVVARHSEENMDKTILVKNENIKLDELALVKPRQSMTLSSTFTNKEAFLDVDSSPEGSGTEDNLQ
Description: CHT inhibitors, dose response, cell-based, 5-point CRC, membrane potential dye (AID 504840). Format: functional.

The next assay has as its target T3, Protein RecA (Mycobacterium tuberculosis, UniProt P9WHJ3).
T3 sequence (P9WHJ3 whole entry): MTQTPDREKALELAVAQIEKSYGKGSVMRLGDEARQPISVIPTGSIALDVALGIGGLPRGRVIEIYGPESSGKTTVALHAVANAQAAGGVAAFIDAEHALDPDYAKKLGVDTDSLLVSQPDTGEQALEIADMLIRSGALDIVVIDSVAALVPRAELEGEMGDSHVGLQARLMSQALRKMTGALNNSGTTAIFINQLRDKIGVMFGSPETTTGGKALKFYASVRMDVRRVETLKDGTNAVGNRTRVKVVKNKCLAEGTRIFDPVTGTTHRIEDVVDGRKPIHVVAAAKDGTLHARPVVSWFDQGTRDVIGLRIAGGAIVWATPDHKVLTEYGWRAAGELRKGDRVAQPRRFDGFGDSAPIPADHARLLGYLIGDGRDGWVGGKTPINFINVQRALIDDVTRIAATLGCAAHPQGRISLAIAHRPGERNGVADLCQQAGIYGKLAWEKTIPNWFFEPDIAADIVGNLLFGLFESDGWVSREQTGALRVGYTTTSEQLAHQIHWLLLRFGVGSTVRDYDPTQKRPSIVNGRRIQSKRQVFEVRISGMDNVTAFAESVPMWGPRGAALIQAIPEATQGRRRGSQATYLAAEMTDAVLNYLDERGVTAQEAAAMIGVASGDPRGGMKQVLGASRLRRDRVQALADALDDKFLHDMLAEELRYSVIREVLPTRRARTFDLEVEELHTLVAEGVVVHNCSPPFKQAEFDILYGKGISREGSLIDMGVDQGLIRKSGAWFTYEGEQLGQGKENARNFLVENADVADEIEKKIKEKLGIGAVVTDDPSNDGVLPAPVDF
Kind of assay: Fluorescence Cell-Free Homogeneous Dose Retest to Identify Inhibitors of RecA-Intein Splicing Activity. [Related pubchem assays (depositor defined):AID2097, AID2223, AID489010, AID492950]. Format: functional.

The target in assay [3] is T4, Replicative DNA helicase DnaB (Mycobacterium tuberculosis, UniProt P9WMR3).
T4 sequence (P9WMR3 whole entry): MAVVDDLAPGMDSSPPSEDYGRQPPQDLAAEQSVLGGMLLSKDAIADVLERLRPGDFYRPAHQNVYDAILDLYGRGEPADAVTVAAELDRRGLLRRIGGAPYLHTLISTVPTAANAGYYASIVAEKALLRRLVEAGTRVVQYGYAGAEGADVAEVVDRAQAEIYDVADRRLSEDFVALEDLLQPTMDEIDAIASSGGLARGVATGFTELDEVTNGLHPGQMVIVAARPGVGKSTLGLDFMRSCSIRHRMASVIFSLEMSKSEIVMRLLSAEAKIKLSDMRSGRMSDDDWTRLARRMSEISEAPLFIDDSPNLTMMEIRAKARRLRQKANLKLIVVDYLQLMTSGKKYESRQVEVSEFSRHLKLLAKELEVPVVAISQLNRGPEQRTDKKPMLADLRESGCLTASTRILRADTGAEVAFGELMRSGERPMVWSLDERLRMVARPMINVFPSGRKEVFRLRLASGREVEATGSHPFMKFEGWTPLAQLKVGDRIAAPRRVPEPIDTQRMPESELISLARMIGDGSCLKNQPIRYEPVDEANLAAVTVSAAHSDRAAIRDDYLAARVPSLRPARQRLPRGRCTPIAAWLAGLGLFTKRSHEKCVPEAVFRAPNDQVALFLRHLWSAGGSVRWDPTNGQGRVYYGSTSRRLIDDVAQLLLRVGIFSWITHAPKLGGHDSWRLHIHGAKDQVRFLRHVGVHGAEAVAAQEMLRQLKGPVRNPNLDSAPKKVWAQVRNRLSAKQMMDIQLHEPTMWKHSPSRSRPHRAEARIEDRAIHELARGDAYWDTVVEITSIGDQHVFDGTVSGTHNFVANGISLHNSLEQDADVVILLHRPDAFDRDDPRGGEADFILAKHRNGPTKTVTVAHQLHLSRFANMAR
Kind of assay: DnaB intein splicing inhibitors, dose response, biochemical, cell-free fluorescence (AID 449749). Format: functional.

The target of another assay is Cytochrome P450 2C19 (Homo sapiens, UniProt P33261). Description: Cytochrome panel assay with activity outcomes. Panel member name: p450-cyp2c19 Compounds with AC50 equal or less than 10 uM are considered active. Format: functional. The following applies: read-out: AC50.
Cytochrome P450 2C19, sequence (P33261 whole entry): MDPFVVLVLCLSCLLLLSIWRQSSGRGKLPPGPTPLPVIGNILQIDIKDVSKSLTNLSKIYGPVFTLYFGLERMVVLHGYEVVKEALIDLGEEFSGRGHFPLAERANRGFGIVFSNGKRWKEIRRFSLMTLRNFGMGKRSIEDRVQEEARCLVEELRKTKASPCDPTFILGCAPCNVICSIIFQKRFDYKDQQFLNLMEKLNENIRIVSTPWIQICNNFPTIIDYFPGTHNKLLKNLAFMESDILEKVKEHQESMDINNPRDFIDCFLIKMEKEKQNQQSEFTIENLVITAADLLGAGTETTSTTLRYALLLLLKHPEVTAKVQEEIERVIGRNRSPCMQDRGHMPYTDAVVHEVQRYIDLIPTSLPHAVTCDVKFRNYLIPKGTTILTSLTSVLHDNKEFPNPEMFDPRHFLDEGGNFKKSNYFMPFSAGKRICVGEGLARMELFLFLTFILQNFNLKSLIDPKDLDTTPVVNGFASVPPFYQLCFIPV
The target of a further assay is Cytochrome P450 3A4 (Homo sapiens, UniProt P08684).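 Also: CYP3A4 tested as one member of a cytochrome P450 panel screen.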
Cytochrome P450 3A4, sequence (P08684 whole entry): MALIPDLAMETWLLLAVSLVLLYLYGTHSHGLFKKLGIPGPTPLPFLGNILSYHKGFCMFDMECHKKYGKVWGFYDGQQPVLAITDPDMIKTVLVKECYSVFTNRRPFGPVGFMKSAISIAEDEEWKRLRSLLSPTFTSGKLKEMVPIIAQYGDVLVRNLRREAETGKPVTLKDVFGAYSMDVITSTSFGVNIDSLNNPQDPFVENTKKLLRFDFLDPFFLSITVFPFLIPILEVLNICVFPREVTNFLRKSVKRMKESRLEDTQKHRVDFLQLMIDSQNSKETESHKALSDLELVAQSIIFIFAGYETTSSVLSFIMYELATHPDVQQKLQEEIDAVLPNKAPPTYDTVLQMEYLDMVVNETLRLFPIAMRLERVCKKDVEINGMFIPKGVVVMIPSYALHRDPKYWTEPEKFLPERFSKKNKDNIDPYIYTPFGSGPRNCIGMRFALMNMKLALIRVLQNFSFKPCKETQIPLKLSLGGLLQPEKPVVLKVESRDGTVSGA
Assay [4] in a line: Luminescence Cell-Based Dose Confirmation HTS to Identify Inhibitors of Platelet Dense Granule Release. [Related pubchem assays: 1663 (Primary HTS), 1678 (Summary of Project)]. Type of assay: functional.
For assay [5], the target named is Luciferin 4-monooxygenase (Photinus pyralis, UniProt P08659). Kind of assay: firefly luciferase enzyme inhibitors, dose response, biochemical, luminescence (AID 1891).
Luciferin 4-monooxygenase, sequence (P08659 whole entry): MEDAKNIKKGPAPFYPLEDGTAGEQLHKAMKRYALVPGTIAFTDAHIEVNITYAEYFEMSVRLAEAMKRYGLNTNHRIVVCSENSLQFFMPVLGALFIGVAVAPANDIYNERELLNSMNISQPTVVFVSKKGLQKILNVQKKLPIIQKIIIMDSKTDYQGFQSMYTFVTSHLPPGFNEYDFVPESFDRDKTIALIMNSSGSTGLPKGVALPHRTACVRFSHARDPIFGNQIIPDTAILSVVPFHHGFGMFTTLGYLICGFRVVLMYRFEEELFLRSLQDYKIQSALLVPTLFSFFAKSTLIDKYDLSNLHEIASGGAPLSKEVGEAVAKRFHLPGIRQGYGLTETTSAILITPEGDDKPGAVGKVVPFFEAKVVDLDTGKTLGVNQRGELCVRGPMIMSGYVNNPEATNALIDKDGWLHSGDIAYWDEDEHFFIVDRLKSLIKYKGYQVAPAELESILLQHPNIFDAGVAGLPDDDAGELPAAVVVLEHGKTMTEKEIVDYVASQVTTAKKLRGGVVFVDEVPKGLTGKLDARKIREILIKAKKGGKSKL
Assay [6] in a line: HEp-2 cell cytotoxicity, dose response, cytotoxicity control for RSV inhibitor project, HTS (AID 2410). Type of assay: functional. As to conditions: human respiratory syncytial virus.
Assay [7] has as its target T5, Heat shock factor protein 1 (Mus musculus, UniProt P38532).
T5 sequence (P38532 whole entry): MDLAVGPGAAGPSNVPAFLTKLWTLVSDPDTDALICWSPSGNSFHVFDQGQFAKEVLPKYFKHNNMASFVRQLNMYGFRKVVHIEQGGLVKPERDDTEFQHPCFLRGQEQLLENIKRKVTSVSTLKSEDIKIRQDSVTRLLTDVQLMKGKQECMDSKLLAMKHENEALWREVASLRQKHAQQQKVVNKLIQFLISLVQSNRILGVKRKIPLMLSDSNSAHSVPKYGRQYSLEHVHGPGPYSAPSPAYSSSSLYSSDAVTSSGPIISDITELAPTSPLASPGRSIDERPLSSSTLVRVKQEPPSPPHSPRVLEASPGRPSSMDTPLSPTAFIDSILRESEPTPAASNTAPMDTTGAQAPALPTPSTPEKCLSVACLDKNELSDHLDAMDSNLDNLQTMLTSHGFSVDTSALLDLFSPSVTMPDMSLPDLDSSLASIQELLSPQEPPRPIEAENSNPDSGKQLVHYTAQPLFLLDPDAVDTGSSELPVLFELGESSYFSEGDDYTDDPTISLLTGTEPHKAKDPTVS
Description: HSF1 potentiators in luciferase reporter cells, confirmation, cell-based, NIH3T3, luminescence, dose retest (AID 435004).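 Also: stress induced by proteasome inhibitor MG132 added 30 min after compound; luciferase reporter driven by HSF1 response element in NIH3T3 cells; actives raise luminescence as potentiators of the MG132 stress response.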 Type of assay: functional. A general note: Reporter assays use an easily measured gene product as a stand-in for the process of interest.

Turning to `CCn1cnc2cc(NCc3ccc(OC)cc3)ccc21`, in [1], the IC50 was 92.1 µM (active).

As for `CNc1oc(Cc2cccc3ccccc23)nc1C#N`, the IC50 in assay [2] is 12.6 µM (active).

Regarding `COc1ccc(N2C(=O)/C(=C\c3ccco3)N=C2SCC(=O)NC(C)(C)C)cc1Cl`, at Protein RecA, the EC50 was 20.7 µM (inconclusive). In assay [3], the AC50 is > 380 µM (inactive).

For the compound `Cc1cc(C(=O)CSc2n[nH]c(N)n2)c(C)n1-c1cc(F)ccc1F`, the IC50 in [2] was 11.2 µM (active).

With `CCCCCn1c(CN2CCCCC2C)nc2c1c(=O)n(C)c(=O)n2C` (stereo not given), the AC50 is 20 µM (inconclusive) at Cytochrome P450 2C19 and 5.01 µM (inconclusive) on Cytochrome P450 3A4. The IC50 in assay [2] is 13.2 µM (active).

For `Cc1ccc(S(=O)(=O)N2CCCCC2)cc1NC(=O)CNCc1ccco1`, in assay [1], the IC50 was 198 µM (active).

With `CCCNc1nc2c(c(=O)n(C)c(=O)n2C)n1CCC(C)C`, the IC50 in [2] was 6.03 µM (active).

Regarding `Cc1nnc(SCC(=O)Nc2ccc(Br)cn2)nc1O`, the EC50 in assay [4] and in assay [5] was > 112 µM (not active) throughout.

As for `CC(Oc1ccccc1Cl)C(=O)Nc1ccc(S(=O)(=O)Nc2nccs2)cc1` (stereo not given), the half-inhibitory concentration (IC50) in assay [2] was 5.01 µM (active).

With `N#C/C(=C\c1cc(Cl)c(OCc2ccc(Cl)cc2)c(Cl)c1)C(N)=O`, the EC50 on Protein RecA is > 380 µM (inconclusive). Further, the CC50 in assay [6] is 36.8 µM (active). Besides, the AC50 in assay [3] was > 380 µM (inactive).

Turning to `COCc1n[nH]c2c1C(c1ccc(OC)cc1)C(C#N)=C(N)O2` (stereo not given), on Protein RecA, the EC50 is 6.79 µM (active). For the same compound, the AC50 in assay [3] was 25.8 µM (active).

On to `Cc1ccc(-c2[nH]c3ccccc3c2C(C[N+](=O)[O-])c2ccco2)cc1` (stereo not given), for which the EC50 in [7] is > 260 µM (inactive); in [4], > 112 µM (not active); in [5], > 112 µM (not active).

Turning to `CC1CCN(CCNC(=O)C2CCCN(c3ncnc4c3nc3n4CCCCC3)C2)CC1` (stereo not given), in [2], the IC50 is 13.2 µM (active).

As to `CCOc1ccccc1/C=C/C(=O)NCC(=O)N1CCC(N(C)C2CCCCC2C)CC1` (stereo not given), the IC50 in [2] is 14.8 µM (active).

Turning to `Cc1c(Cl)cccc1N=C([S-])/C(=C(\O)c1ccc(Cl)s1)[n+]1ccccc1`, the EC50 at Protein RecA is 12.9 µM (active). For the same compound, the AC50 in assay [3] was 19.8 µM (active).

Turning to `Cc1cc(C)c(C)c(S(=O)(=O)Nc2ccc(O)cc2)c1C`, in [1], the IC50 was 45.7 µM (active).

With `CCN(CC(=O)NC1CCS(=O)(=O)C1)S(=O)(=O)c1ccccc1` (stereo not given), the EC50 in [4] and in assay [5] was > 112 µM (not active) throughout.

Take `COc1ccc(NC(=S)N2CCc3ccccc32)cc1OC`: the EC50 in assay [4] and in assay [5] was > 112 µM (not active) each time.

`O=C(NCCCn1ccnc1)/C(=C\c1ccc(Br)cc1)NC(=O)c1ccccc1`: the IC50 in [2] is 15.1 µM (active).

With `Nc1cc2c(cc1N)-c1ccccc1C2`, the IC50 in assay [1] was 23 µM (active).

As for `CC(CCn1cccn1)NC(=O)CCc1nnc(CCc2ccccc2)o1` (stereo not given), on Protein RecA, the EC50 was > 380 µM (inactive). In addition, in assay [3], the AC50 is > 380 µM (inactive).

`COCCCNC(=O)c1ccc(OC)c(OC2CCN(C(C)C)CC2)c1`: in [2], the IC50 is 2.51 µM (active).

Take `COc1ccc(C(CNC(=O)c2cc(S(=O)(=O)NCc3ccccc3)ccc2C)N2CCOCC2)cc1` (stereo not given): the IC50 in assay [2] was 11 µM (active).

As for `O=C(Cc1ccc(Cl)cc1)N/N=C/c1ccc(O)c(O)c1`, the IC50 in assay [1] is 19.7 µM (active).

Take `COc1cc(/C=N/NC(=O)c2cn(-c3cccc(C)n3)cn2)ccc1O`: in assay [1], the IC50 was 36.1 µM (active).

As to `COc1ccccc1N1CCN(/N=C/c2ccc(O)cc2O)CC1`, in assay [1], the IC50 is 48 µM (active).

Consider `C[N+](C)(C)CC=O` [BETAINE ALDEHYDE CHLORIDE], for which the IC50 in assay [2] is 15.1 µM (active).
